{"source": "patent US6495525B1", "about": "“VLA-4 inhibitor: oMePUPA-V” (Biogen, Inc., priority 1998, dated 2002)", "key": {"[1]": {"target": "T1, α4β7 (Homo sapiens, UniProt P13612+P26010)", "T1 construct": "endogenous in cells; host or cells: JY cells", "T1 sequence (P13612 34-1032)": "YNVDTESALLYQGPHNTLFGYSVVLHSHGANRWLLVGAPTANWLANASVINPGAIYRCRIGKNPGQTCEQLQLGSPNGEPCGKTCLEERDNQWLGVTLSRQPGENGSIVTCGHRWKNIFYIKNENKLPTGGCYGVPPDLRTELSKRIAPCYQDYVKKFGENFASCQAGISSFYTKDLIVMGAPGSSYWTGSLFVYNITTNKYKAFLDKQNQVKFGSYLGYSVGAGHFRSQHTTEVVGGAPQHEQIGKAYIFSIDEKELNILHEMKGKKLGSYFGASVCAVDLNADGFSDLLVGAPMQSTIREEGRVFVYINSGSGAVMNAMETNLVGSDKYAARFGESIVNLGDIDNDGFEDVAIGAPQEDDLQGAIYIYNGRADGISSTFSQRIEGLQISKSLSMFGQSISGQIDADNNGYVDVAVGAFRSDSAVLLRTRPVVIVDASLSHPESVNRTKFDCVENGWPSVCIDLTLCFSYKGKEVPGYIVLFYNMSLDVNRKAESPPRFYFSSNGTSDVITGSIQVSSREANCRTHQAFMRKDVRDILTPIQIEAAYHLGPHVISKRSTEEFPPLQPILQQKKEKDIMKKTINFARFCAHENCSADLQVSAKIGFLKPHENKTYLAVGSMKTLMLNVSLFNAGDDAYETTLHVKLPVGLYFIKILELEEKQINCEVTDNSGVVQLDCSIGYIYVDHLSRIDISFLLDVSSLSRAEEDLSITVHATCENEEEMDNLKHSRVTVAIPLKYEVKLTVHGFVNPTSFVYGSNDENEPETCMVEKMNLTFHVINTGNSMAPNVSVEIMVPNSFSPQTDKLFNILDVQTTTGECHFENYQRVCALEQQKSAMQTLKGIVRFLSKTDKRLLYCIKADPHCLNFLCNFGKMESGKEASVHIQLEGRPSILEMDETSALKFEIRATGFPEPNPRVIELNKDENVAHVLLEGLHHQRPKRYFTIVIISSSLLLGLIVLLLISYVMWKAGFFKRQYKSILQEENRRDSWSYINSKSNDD", "T1 sequence (P26010 20-798)": "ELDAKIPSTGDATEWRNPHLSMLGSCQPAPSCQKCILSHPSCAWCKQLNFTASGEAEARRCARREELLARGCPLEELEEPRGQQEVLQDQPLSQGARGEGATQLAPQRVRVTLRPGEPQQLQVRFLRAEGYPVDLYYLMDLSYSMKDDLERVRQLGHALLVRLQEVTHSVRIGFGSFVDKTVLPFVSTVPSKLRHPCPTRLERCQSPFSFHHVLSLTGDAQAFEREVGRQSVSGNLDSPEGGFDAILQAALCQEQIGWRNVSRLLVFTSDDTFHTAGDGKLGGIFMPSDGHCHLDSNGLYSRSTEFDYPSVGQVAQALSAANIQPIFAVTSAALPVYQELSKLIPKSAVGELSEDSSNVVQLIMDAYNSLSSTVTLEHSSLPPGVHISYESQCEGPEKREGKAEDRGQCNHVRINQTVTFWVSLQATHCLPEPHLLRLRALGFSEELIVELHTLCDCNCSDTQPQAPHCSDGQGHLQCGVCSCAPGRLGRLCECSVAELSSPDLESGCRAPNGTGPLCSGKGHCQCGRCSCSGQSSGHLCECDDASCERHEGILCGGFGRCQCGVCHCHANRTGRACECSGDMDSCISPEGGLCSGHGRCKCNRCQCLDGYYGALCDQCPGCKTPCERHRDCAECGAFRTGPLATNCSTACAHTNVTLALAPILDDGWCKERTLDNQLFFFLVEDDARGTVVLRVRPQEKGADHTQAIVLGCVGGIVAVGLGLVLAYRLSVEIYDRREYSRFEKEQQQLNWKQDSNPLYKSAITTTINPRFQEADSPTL", "assay": "VCAM-Ig Direct Binding Assay on JY cells (α4β7)", "protocol": "In order to assess the VLA-4 inhibitory specificity of the compounds of this invention, assays for other major groups of integrins, i.e., β2and β3, as well as other β1 integrins, such as VLA-5, VLA-6 and α4β7 are performed. These assays may be similar to the adhesion inhibition and direct binding assays described above, substituting the appropriate integrin-expressing cell and corresponding ligand. For example, polymorphonuclear cells (PMNs) express β2 integrins on their surface and bind to ICAM. β3 integrins are involved in platelet aggregation and inhibition may be measured in a standard platelet aggregation assay. VLA-5 binds specifically to Arg-Gly-Asp sequences, while VLA-6 binds to laminin. α4β7 is a recently discovered homologue of VLA-4, which also binds fibronectin and VCAM. Specificity with respect to α4β7 is determined in a binding assay that utilizes the above-described VCAM-IgG-enzyme marker conjugate and a cell line that expresses α4β7, but not VLA-4, such as RPMI-8866 or JY cells.\n(§1) Binding to α4β7 was assessed on JY cells in the presence of Mn^+2. In the binding assay, VCAM-Ig and oMePUPA-V compete for binding to α4β7 on JY cells (See section 4.1.1 for assay protocol). In the cell adhesion assay, oMePUPA-V was tested for its ability to block JY (α4β7) cell binding to CS1/BSA conjugate"}, "[2]": {"test_system": "Ascaris suum-sensitive sheep", "assay": "Single dose irritancy, airways resistance after aerosol in sheep", "format": "in vivo", "settings": "single aerosol doses 0.01-3 mg", "protocol": "FIG. 2: Sheep, naturally sensitive to Ascaris suum, were challenged with an aerosol administration of oMePUPA-V at the doses indicated or an aerosol of Ascaris suum. Changes in airways resistance were measured following aerosol challenge and peak specific lung resistance (cm H2O/sec) after challenge was compared to baseline values. *=p<0.05 compared to PBS control, one-way analysis of variance, followed by Dunnett's test for multiple comparison to a control group. Indicates a statistically significant increase in peak specific lung resistance compared to PBS control group."}, "[3]": {"target": "T1, α4β7", "assay": "JY cell adhesion to CS1/BSA conjugate", "format": "cell-based", "settings": "Mn+2", "protocol": "as §1"}, "[4]": {"target": "T2, VLA-5 (Homo sapiens, UniProt P05556+P08648)", "T2 construct": "endogenous in cells; host or cells: K562 cells", "T2 sequence (P08648 42-894 limits assumed)": "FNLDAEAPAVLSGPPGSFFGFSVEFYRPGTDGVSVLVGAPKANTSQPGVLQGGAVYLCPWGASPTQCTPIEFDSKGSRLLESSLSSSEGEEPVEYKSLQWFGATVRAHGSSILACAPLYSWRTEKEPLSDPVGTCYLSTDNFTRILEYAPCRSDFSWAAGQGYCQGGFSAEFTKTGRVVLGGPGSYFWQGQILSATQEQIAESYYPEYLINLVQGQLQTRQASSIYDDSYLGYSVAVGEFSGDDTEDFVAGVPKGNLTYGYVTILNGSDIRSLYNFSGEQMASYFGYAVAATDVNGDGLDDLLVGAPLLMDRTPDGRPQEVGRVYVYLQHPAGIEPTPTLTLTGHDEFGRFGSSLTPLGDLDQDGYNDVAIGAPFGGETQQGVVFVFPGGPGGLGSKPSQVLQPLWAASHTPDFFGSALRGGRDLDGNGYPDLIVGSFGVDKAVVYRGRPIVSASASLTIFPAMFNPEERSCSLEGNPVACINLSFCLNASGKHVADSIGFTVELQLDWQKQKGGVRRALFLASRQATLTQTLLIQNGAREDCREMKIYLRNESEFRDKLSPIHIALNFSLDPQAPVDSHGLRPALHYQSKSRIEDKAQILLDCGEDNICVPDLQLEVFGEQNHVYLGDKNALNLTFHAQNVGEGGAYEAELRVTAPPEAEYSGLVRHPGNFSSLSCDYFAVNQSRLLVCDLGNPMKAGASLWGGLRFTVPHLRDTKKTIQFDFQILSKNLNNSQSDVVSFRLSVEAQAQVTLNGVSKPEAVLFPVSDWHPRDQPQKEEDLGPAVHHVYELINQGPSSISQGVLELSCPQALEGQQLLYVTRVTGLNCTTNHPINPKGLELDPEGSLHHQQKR", "T2 sequence (P08648 895-1049 partner limits assumed)": "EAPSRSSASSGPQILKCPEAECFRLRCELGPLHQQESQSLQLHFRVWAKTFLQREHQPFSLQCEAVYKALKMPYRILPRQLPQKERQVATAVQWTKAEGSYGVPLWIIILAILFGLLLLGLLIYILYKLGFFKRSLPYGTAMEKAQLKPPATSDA", "T2 sequence (P05556 21-798)": "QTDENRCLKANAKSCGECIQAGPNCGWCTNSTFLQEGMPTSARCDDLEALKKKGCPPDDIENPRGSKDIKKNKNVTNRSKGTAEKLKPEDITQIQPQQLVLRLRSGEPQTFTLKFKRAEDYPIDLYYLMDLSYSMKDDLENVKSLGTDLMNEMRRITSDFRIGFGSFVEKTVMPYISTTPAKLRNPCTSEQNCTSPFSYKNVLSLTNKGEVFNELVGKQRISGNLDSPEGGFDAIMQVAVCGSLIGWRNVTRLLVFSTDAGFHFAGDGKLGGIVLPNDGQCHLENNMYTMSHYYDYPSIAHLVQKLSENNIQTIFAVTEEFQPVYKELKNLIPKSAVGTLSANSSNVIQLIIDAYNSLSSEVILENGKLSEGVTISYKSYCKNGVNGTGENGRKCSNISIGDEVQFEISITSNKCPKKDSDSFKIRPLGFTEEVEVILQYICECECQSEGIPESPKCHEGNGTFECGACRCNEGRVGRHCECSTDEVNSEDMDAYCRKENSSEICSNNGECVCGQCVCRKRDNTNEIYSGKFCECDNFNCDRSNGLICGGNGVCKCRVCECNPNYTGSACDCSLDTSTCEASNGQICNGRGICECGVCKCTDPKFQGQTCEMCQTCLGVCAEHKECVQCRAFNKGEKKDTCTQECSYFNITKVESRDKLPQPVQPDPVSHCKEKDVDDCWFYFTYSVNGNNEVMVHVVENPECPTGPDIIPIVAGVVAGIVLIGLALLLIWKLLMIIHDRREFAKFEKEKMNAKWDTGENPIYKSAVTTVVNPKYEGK", "assay": "Adhesion of K562 cells to Fn-120 (VLA-5 / α5β1-FN adhesion)", "format": "cell-based", "protocol": "Untreated 96 well polystyrene flat bottom plates were coated with 5 μg/ml Fn-120 overnight at 4° C. The plates were washed twice with phosphate buffered saline (PBS) and blocked with 1% Bovine Serum Albumin (BSA) for 1 hour at room temperature. The plates were washed twice with TBS buffer containing 1 mM MnCl2 (assay buffer). K562 cells were labeled with 2 μM of the fluorescent dye, BCECF-AM (see section 4.1.3), and bound to the plate for 30 minutes at room temperature. The plates were inverted and washed three times and adherent cells were quantitated in a Cytofluor fluorescent platereader using an excitation wavelength of 485 nm and an emission wavelength of 530"}}, "note": "Entries after “also recorded” stand apart in the source; their conditions may differ.", "data": [{"compound": "Cc1ccccc1NC(=O)Nc1ccc(CC(=O)N2CCC[C@H]2C(=O)N[C@H](C)CC(=O)O)cc1", "note": "[oMePUPA-V]", "values": [{"measurement": "measurable activity against α4β7", "setting": "[1]", "value": "> 100", "unit": "µM"}, {"measurement": "inhibition at 100 µM", "setting": "[1]; @ 100 μM, Mn+2, read-out: inhibition, JY (α4β7) VCAM-Ig DBA", "value": 3, "unit": "%"}, {"measurement": "blocking of α4β7 binding to VCAM-Ig (in words)", "setting": "[1]; JY cells, Mn+2", "value": "does not block"}, {"measurement": "IC50", "setting": "[1]; read-out: IC50 against α4β7-VCAM-Ig binding", "value": "> 100", "unit": "µM"}, {"measurement": "irritant effect, change in airways resistance compared to baseline", "setting": "[2]", "value": "lack of change in airways resistance compared to baseline resistance"}, {"measurement": "inhibition, JY (α4β7) CS1/BSA adhesion", "setting": "[3]; @ 100 μM", "value": "no inhibition @"}, {"measurement": "blocking of α4β7 binding to CS1/BSA (in words)", "setting": "[3]; JY cells", "value": "does not block"}, {"measurement": "measurable activity against VLA-5", "setting": "[4]", "value": "> 100", "unit": "µM"}, {"measurement": "inhibition, K562 (VLA-5) Fn-120 adhesion", "setting": "[4]; @ 100 μM, Mn+2, 100 µM", "value": "no inhibition; also recorded: no inhibition @"}, {"measurement": "IC50", "setting": "[4]; read-out: IC50 against α5β1-FN adhesion", "value": "> 100", "unit": "µM"}]}]}
